Experiments:
[1] = Effect of composition on pH of surrounding tap water; assay type: physicochemical; settings: 4 ppm iron; tap water alone 6.93
Source text: Since the pH of water is an important factor in biology for microorganism growth and survival, experiments were undertaken to determine what effect the compositions had on the pH of surrounding water.
The effects of 4 ppm iron-loaded composition (“Fe—WP”), iron chloride and iron sulfate on the pH of tap water was examined. […] However, the same amount of iron with sources of iron chloride and iron sulfate reduced the pH of tap water within a range of 1.6-2.9 units.

[2] = system: mung bean plants; assay: Plant growth study with salts or compositions comprising zinc or manganese on wood pulp in soil at elevated concentrations; assay type: in vivo
Protocol: Mung bean seeds were planted in 2 g of sterile sunshine mix soil in autoclaved jars. […] The wood pulp, acting as the carrier, was Canfor 350/70-1 (carrier C from Table 1). […] The root length was measured from start of roots to longest root tip. […] The plants to be used in the presence of compositions as disclosed herein were sowed in 2 g of sunshine mix to which 0.1 g of the composition was added, made of various concentrations of zinc or manganese. These were all watered with 5 mL deionized water. The beans grew in this treatment for 9 further days.

Molecule	PH of tap water [1]	toxicity for mung bean plants ([2]; 2000 ppm in soil)	mung bean stem height and root length growth ([2]; 2000 ppm zinc as salt in soil, 9 days, FIGS. 7(a), 7(b))
O=S(=O)([O-])[O-].O=S(=O)([O-])[O-].O=S(=O)([O-])[O-].[Fe+3].[Fe+3] [Fe2(SO4)3, iron sulfate]	4.17	–	–
[Cl-].[Cl-].[Zn+2] [zinc, zinc chloride]	–	exhibits toxicity	reduced stem height and root length growth
iron chloride [FeCl3]	4.03	–	–

Reference: patent US11691928B2, “Compositions, systems and methods for delivery of an element in response to biological demand” (Lucent Biosciences, Inc., priority 2018, dated 2023)
